Like-named read-outs stand apart in the source and are kept apart here.
Test: Example 8: food effect on 4-CNAB pharmacokinetics, type 1 diabetes patients
Type: in vivo, human
Conditions: for AUC / Cmax / Tmax / AUC(0-inf) / half-life: human, plasma; for AUC(0-inf): read-out: Plasma 4-CNAB AUC0-inf; for half-life: read-out: Plasma 4-CNAB t1/2 (converted)
Method: A single-center, open label, randomized, single dose, 3-way cross-over study was conducted in type 1 diabetes mellitus patients to investigate the effect of food on the absorption and pharmacokinetics of insulin after a single dose of oral 4-CNAB/insulin, and to determine the effect of food on the pharmacodynamics of glucose and C-peptide after a single oral dose of 4-CNAB/insulin.
For diabetic patients, the study consisted of an eligibility screening period, three study periods and a follow-up exam at the conclusion of the last period. The three study periods included the following: administration of single doses of 4-CNAB/insulin followed by fasting (treatment A), followed by an ADA breakfast […] after dosing (treatment B), and followed by an ADA breakfast […] after dosing (treatment C). The study was conducted using an open label, randomized, crossover design with an interval of at least 7 days between treatments. The patients fasted overnight. The type 1 diabetics were randomized to treatment A or […] in periods 1 and 2. In period 3, all diabetics received treatment C. A total of eight type 1 diabetic patients were enrolled. As a control group, two healthy volunteers were enrolled.
The following treatments were administered to the type 1 diabetics according to the randomization schedule (see below) • a) 400 mg 4-CNAB/300 IU insulin followed by fasting; • b) 400 mg 4-CNAB/300 IU insulin followed by an ADA breakfast 30 minutes after dosing; • c) 400 mg 4-CNAB/300 IU insulin followed by an ADA breakfast 20 minutes after dosing.
Blood samples for pharmacokinetic analysis of 4-CNAB and insulin were drawn 30, 15 and 5 minutes prior to and at 10, 20, 30, 40, 50, 60, 75, 90, 105, 120, 150, 180, 210, and 240 minutes after 4-CNAB/insulin administration (17 samples per subject per period). Blood samples for plasma glucose were drawn 30, 15 and 5 minutes prior to and at 10, 20, 30, 40, 50, 60, 75, 90, 105, 120, 150, 180, 210, and 240 minutes after administration (17 samples per subject per period). Blood samples for C-peptide were drawn 30 and 5 minutes prior to and 30, 60, 90, 120, 180 and 240 minutes after administration (8 samples per subject per period).

[1] = oral, period 0-20 minutes post-dose, Breakfast 20 min post-dose
[2] = oral, period 0-20 minutes post-dose, Breakfast 30 min post-dose
[3] = oral, period 0-20 minutes post-dose, Fasting
[4] = oral, period 0-30 minutes post-dose, Breakfast 20 min post-dose
[5] = oral, period 0-30 minutes post-dose, Breakfast 30 min post-dose
[6] = oral, period 0-30 minutes post-dose, Fasting
[7] = oral, period 0-3 hours post-dose, Breakfast 20 min post-dose
[8] = oral, period 0-3 hours post-dose, Breakfast 30 min post-dose
[9] = oral, period 0-3 hours post-dose, Fasting
[10] = po, 400 mg, 400 mg 4-CNAB/300 IU insulin oral, Breakfast 20 min post-dose
[11] = po, 400 mg, 400 mg 4-CNAB/300 IU insulin oral, Breakfast 30 min post-dose
[12] = po, 400 mg, 400 mg 4-CNAB/300 IU insulin oral, Fasting

## O=C(O)CCCNC(=O)c1ccc(Cl)cc1O [4-CNAB, 4-[(4-chloro, 2-hydroxybenzoyl)amino]butanoic acid]
Breakfast 30 or 20 minutes after dosing
  Effect of food intake on 4-CNAB pharmacokinetics: no effect on the pharmacokinetics of 4-CNAB
[1]
  AUC: 2800 ng·h/mL
  Cmax: 20600 ng/mL
oral, period 0-20 minutes post-dose, Breakfast 20 min post-dose, read-out: Plasma 4-CNAB tmax
  Tmax: 19.8 min
[2]
  AUC: 2280 ng·h/mL
  Cmax: 18800 ng/mL
oral, period 0-20 minutes post-dose, Breakfast 30 min post-dose, read-out: Plasma 4-CNAB tmax
  Tmax: 19.8 min
[3]
  AUC: 2900 ng·h/mL
  Cmax: 20700 ng/mL
oral, period 0-20 minutes post-dose, Fasting, read-out: Plasma 4-CNAB tmax
  Tmax: 19.8 min
[4]
  AUC: 6370 ng·h/mL
  Cmax: 24600 ng/mL
oral, period 0-30 minutes post-dose, Breakfast 20 min post-dose, read-out: Plasma 4-CNAB tmax
  Tmax: 25.2 min
[5]
  AUC: 5960 ng·h/mL
  Cmax: 24000 ng/mL
oral, period 0-30 minutes post-dose, Breakfast 30 min post-dose, read-out: Plasma 4-CNAB tmax
  Tmax: 28.8 min
[6]
  AUC: 6300 ng·h/mL
  Cmax: 21500 ng/mL
oral, period 0-30 minutes post-dose, Fasting, read-out: Plasma 4-CNAB tmax
  Tmax: 23.4 min
[7]
  AUC: 16500 ng·h/mL
  Cmax: 25000 ng/mL
oral, period 0-3 hours post-dose, Breakfast 20 min post-dose, read-out: Plasma 4-CNAB tmax
  Tmax: 27.6 min
[8]
  AUC: 17100 ng·h/mL
  Cmax: 24000 ng/mL
oral, period 0-3 hours post-dose, Breakfast 30 min post-dose, read-out: Plasma 4-CNAB tmax
  Tmax: 30 min
[9]
  AUC: 18300 ng·h/mL
  Cmax: 21800 ng/mL
oral, period 0-3 hours post-dose, Fasting, read-out: Plasma 4-CNAB tmax
  Tmax: 26.4 min
[10]
  Cmax: 25000 ng/mL
  AUC(0-inf): 18000 ng·h/mL
  half-life: 39 min
po, 400 mg, 400 mg 4-CNAB/300 IU insulin oral, Breakfast 20 min post-dose, read-out: Plasma 4-CNAB tmax, Median (min-max)
  Tmax: 25.2 min
[11]
  Cmax: 24000 ng/mL
  AUC(0-inf): 18400 ng·h/mL
  half-life: 42 min
po, 400 mg, 400 mg 4-CNAB/300 IU insulin oral, Breakfast 30 min post-dose, read-out: Plasma 4-CNAB tmax, Median (min-max)
  Tmax: 30 min
[12]
  Cmax: 21800 ng/mL
  AUC(0-inf): 20700 ng·h/mL
  half-life: 51.6 min
po, 400 mg, 400 mg 4-CNAB/300 IU insulin oral, Fasting, read-out: Plasma 4-CNAB tmax, Median (min-max)
  Tmax: 25.2 min
